US20060079453A1, “Hla binding peptides and their uses” (priority 2002, published 2006)
Where two headings read alike, the source gives them in different places. No end group written: not given here.

Experiments:
Experiment in all cases: biochemical
Type in all cases: binding
[1] = target: HLA-DR DRB1*1101 (DR11) (Homo sapiens, UniProt P01903+P01911, A100R/A169T/A87E/I96F/K41T/L162R/M171V/P40S/Q125H/Q178H/Q39Y/Q99D/R42S/S66Y/T262R/V115G/W38E)
[2] = target: HLA-DR DRB5*0101 (DR51) (Homo sapiens, UniProt P01903+Q30154)
[3] = target: HLA-DR DRB1*0101 (DR1) (Homo sapiens, UniProt P01903+P01911, A100R/D57E/F55L/F60I/F76Y/I96L/L162R/M171V/P40L/Q125E/R42F/V115G/Y59C)
[4] = target: HLA-DR DRB1*0401 (DR4) (Homo sapiens, UniProt P01903+P01911, A100K/A169T/F76Y/I96L/K127E/L162R/M171V/N62H/P40V/Q125Y/R42H/S133A/S149N/S66Y/V115G/V209L/W38E)
[5] = target: HLA-DR DRB1*1302 (DR13) (Homo sapiens, UniProt P01903+P01911, A100E/A169T/K41T/L162R/M171V/P40S/Q125H/Q178H/Q39Y/Q99D/R42S/S66N/T262R/V115G/W38E/Y61H)
HLA-DR DRB1*1302 (DR13), sequence (P01903 26-254 limits assumed, other chains not shown): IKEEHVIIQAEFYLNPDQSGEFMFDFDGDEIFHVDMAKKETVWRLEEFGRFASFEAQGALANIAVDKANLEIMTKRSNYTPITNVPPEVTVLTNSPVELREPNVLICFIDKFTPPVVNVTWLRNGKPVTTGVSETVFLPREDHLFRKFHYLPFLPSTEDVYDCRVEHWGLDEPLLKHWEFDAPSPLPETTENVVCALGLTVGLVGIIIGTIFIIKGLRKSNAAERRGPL

[6] = target: HLA-DR DRB1*1501 (DR15) (Homo sapiens, UniProt P01903+P01911)
[7] = target: HLA-DR DRB4*0101 (DR53) (Homo sapiens, UniProt P01903+P13762, G164S)
[8] = target: HLA-DR DRB1*0701 (DR7) (Homo sapiens, UniProt P01903+P01911, A100R/A102G/A103Q/D57E/D86V/E43K/F76Y/K127E/L162R/M171V/P40G/Q125H/Q99D/R33Q/R42Y/R54Q/S133A/S66F/T210M/V115G/Y107V/Y59L/Y89S)
[9] = target: HLA-DR DRB1*0301 (DR3) (Homo sapiens, UniProt P01903+P01911, A100K/A102G/A103R/A169T/F55Y/I96L/K41T/L162R/M171V/P40S/Q125H/Q178H/Q39Y/R42S/S66N/T106N/T262R/W38E/Y61H)
HLA-DR DRB1*0301 (DR3), sequence (P01903 26-254 limits assumed, other chains not shown): as above

HLA-DR DRB1*1101 (DR11), sequence (P01903 26-254 limits assumed, other chains not shown): as above

Row | Sequence | IC50 ([1]; DRB1 *1101) | IC50 ([2]; DRB5 *0101) | IC50 ([3]; DRB1 *0101) | IC50 ([1]; read-out: DRB1 *1101) | IC50 ([2]; read-out: DRB5 *0101) | IC50 ([5]; read-out: DRBI *1302) | IC50 ([6]; read-out: DRBI *1501) | IC50 ([7]; DRB4 *0101) | IC50 ([8]; DRB1 *0701) | other results
1 | EEYVRFDSDVGE | ≥ 200000 nM | ≥ 200000 nM | ≥ 50000 nM |  |  |  |  |  |  | IC50 ([4]; DRB1 *0401): 216 nM
2 | EFAFKDLFVVYRDSI |  |  |  | 9500 nM | 6000 nM | 10000 nM | 5360 nM |  |  | 
3 | ENEYATGAVRPFQAA |  | > 10300 nM | 4440 nM |  |  |  |  | 10000 nM | 4970 nM | IC50 ([5]; DRBI *1302): 9300 nM; IC50 ([4]; DRB1 *0401): 281 nM; IC50 ([6]; DRBI *1501): 3010 nM
4 | EYLILSARDVLAVVS |  |  |  |  |  |  |  | 2530 nM |  | IC50 [1]: 6860 nM; IC50 [2]: 4150 nM; IC50 [4]: 508 nM; IC50 [6]: 2340 nM
5 | IQQLLMGTVNIVCPT |  |  |  | 11100 nM | > 55100 nM | 9 nM | 2010 nM |  |  | 
6 | KATLQDIVLHLEPQN | 25900 nM | > 9930 nM | 1200 nM |  |  |  |  | 159 nM | 9090 nM | IC50 ([5]; DRBI *1302): 603 nM; IC50 ([4]; DRB1 *0401): 1990 nM; IC50 ([6]; DRBI *1501): 6970 nM
7 | KKPLNEILIRCHCQ |  |  |  | 1300 nM |  | 965 nM |  |  |  | IC50 ([7]; read-out: DRB4 *0101): 140 nM
8 | KSKFNILSSPLFNNF |  |  |  |  | 32 nM | 25 nM | 5.9 nM |  |  | IC50 ([3]; read-out: DRB1 *0101): 0.8 nM; IC50 ([4]; read-out: DRB1 *0401): 16 nM; IC50 ([8]; read-out: DRB1 *0701): 65 nM
9 | KSNFLNCYVSGFHPSD | 5000 nM |  | 2500 nM |  |  |  |  |  |  | IC50 [9]: > 900000 nM
10 | KVSCKGSGYTFTAYQMH | > 200000 nM |  | 5000 nM |  |  |  |  |  | 50000 nM | 
11 | LAHYDVLLSYPNKTA |  |  |  | 380 nM |  |  | 82 nM |  |  | IC50 ([7]; read-out: DRB4 *0101): 589 nM
12 | LCNFKKNIIALLHP |  |  |  |  | > 42600 nM | 16 nM | 29300 nM |  |  | IC50 ([7]; read-out: DRB4 *0101): 99 nM
13 | LGFFPDHQLDPAFRANT |  |  |  |  |  |  |  |  |  | IC50 ([9]; read-out: DRB1 *0301): 12000 nM
14 | LQDVVLELTPQTEID | > 31600 nM | > 31400 nM | 1490 nM |  |  |  |  | 1120 nM | 5670 nM | IC50 ([5]; DRBI *1302): 1140 nM; IC50 ([6]; DRBI *1501): > 33100 nM
15 | LREYILDLHPEPTDL |  |  |  | 9830 nM | > 40400 nM |  |  |  |  | 
16 | LRTIQQLLMGTVNIV |  | 32100 nM | 13 nM |  |  |  |  | 15 nM | 513 nM | IC50 [9]: 23200 nM; IC50 ([5]; DRBI *1302): 6.4 nM; IC50 ([4]; DRB1 *0401): 108 nM; IC50 ([6]; DRBI *1501): 265 nM
